Results reported in patent US20240270762A1, “PENICILLIN-BINDING PROTEIN INHIBITORS” (priority 2021, published 2024).
Converted amounts (≈) assume the structure as drawn.

Assays:
P. aeruginosa CDC-0110 = assay: microbe, parasite or virus in culture; assay type: cell-based; details: Pseudomonas aeruginosa, CDC0110, read-out: Minimum inhibitory concentration, P. aeruginosa CDC-0110
A. baumannii 1258916 = assay: microbe, parasite or virus in culture; assay type: cell-based, Acinetobacter baumannii; details: Acinetobacter baumannii, 1258916, read-out: MIC, A. baumannii 1258916
N. gonorrhoeae CDC-0197 = assay: Liquid broth MIC in Fastidious broth; details: Neisseria gonorrhoeae, CDC0197, read-out: Minimum Inhibitory Concentration, CDC-0197
[1] = biological target: T1, PBP3 from Pseudomonas aeruginosa (PAO1) (Pseudomonas aeruginosa, UniProt G3XD46); assay: Bocillin-FL fluorescence polarization competition binding, P. aeruginosa PBP3; details: Binding affinity to P. aeruginosa PBP3; fluorescence polarization competition binding assay using Bocillin-FL; read-out: P. aeruginosa PBP3 Potency
T1 construct: made in house
T1 sequence (G3XD46 whole entry): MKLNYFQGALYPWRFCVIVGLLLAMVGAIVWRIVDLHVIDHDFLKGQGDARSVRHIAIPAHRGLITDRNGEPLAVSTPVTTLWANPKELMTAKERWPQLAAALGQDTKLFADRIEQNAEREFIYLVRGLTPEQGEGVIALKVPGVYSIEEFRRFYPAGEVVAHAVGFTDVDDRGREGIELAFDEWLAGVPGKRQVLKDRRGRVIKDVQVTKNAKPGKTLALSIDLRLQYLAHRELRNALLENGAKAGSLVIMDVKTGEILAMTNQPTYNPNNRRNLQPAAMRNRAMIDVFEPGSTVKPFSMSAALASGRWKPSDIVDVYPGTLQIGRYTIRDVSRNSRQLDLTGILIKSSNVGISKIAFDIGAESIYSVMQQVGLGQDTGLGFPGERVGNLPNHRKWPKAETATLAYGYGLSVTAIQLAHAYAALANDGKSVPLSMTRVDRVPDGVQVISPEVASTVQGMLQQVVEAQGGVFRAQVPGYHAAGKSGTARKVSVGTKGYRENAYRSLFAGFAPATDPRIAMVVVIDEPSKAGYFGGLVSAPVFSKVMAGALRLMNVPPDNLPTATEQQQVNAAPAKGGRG
In short: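 Purified PBPs pre-incubated with inhibitor (E. coli PBP3 1.5 μM, 30 min; P. aeruginosa PBP3 0.75 μM, A. baumannii PBP1a 1 μM and PBP3 0.2 μM, 15 min), then Bocillin-FL 0.1 μM (0.05 μM for PBP1a) added; FP read up to 60 min. EC50 = concentration halving bound Bocillin-FL.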

[2] = tested on: N. gonorrhoeae ATCC 49226; assay: Liquid broth MIC in Fastidious broth; details: Neisseria gonorrhoeae, ATCC49226, read-out: Minimum Inhibitory Concentration, ATCC 49226
N. gonorrhoeae WHO X = assay: Liquid broth MIC in Fastidious broth; details: Neisseria gonorrhoeae, read-out: Minimum Inhibitory Concentration, WHO X
Description: Liquid broth-based assays were used for antibacterial testing of PBP inhibitors in Neisseria gonorrhoeae. Briefly, cryo-preserved bacterial cultures of clinical strains were streaked for isolation on Chocolate Agar (72 g/L (2×) GC Agar Base (BD #228950) and 2% (2×) Hemoglobin was autoclaved at 121° C. for 20 minutes to sterilize. Once cooled to ˜50° C. the 2×GC Agar Base and 2× Hemoglobin solutions are combined and 1% IsoVitaleX Enrichment (BD #211876) was added to the solution). Strains were incubated at 36° C. and 5% CO2 to allow growth of colonies, 24 hours before inoculum preparation. 2-fold serial dilutions of test compounds were conducted in a 96 well plate with a final volume of 75 μL per well at 2-fold the final desired concentration in Fastidious broth (Remel #R07664). For preparation of assay inoculum, a direct suspension was prepared by aseptically swabbing 10-15 colonies from agar plates into culture tubes containing 2 mL of fresh sterile saline. After the dilution plates were set up, direct suspensions were then diluted in a cuvette containing sterile saline and the optical density was measured at 600 nm. Inocula were diluted such that 75 μL of this culture in Fastidious broth results in a starting bacterial concentration of 5×10^5 CFU/mL when added to the dilution plates. The plates were incubated for ˜24 hours at 36° C. and 5% CO2.

A. baumannii ATCC 17978 = assay: microbe, parasite or virus in culture; assay type: cell-based; details: Acinetobacter baumannii, ATCC17978, read-out: MIC, A. baumannii ATCC 17978
A. baumannii CDC-0033 = assay: microbe, parasite or virus in culture; assay type: cell-based; details: Acinetobacter baumannii, CDC0033, read-out: MIC, A. baumannii CDC-0033
N. gonorrhoeae MS11 = assay: Liquid broth MIC in Fastidious broth; details: Neisseria gonorrhoeae, MS11, read-out: Minimum Inhibitory Concentration, MS11
A. baumannii CDC-0036 = assay: microbe, parasite or virus in culture; assay type: cell-based; details: Acinetobacter baumannii, CDC0036, read-out: MIC, A. baumannii CDC-0036
A. baumannii ATCC 19606 = assay: microbe, parasite or virus in culture; assay type: cell-based; details: Acinetobacter baumannii, ATCC19606, read-out: MIC, A. baumannii ATCC 19606
N. gonorrhoeae WHO M = assay: Liquid broth MIC in Fastidious broth; details: Neisseria gonorrhoeae, read-out: Minimum Inhibitory Concentration, WHO M
P. aeruginosa CDC-0095 = assay: microbe, parasite or virus in culture; assay type: cell-based; details: Pseudomonas aeruginosa, CDC0095, read-out: Minimum inhibitory concentration, P. aeruginosa CDC-0095
A. baumannii CDC-0083 = assay: microbe, parasite or virus in culture; assay type: cell-based; details: Acinetobacter baumannii, CDC0083, read-out: MIC, A. baumannii CDC-0083
P. aeruginosa ATCC 35151 = assay: microbe, parasite or virus in culture; assay type: cell-based; details: Pseudomonas aeruginosa, ATCC35151, read-out: Minimum inhibitory concentration, P. aeruginosa ATCC 35151

Row | Structure (SMILES) | MIC (P. aeruginosa CDC-0110) | MIC (A. baumannii 1258916) | MIC (N. gonorrhoeae CDC-0197) | IC50 [1] | MIC [2] | MIC (N. gonorrhoeae WHO X) | MIC (A. baumannii ATCC 17978) | MIC (A. baumannii CDC-0033) | MIC (N. gonorrhoeae MS11) | MIC (A. baumannii CDC-0036) | MIC (A. baumannii ATCC 19606) | MIC (N. gonorrhoeae WHO M) | MIC (P. aeruginosa CDC-0095) | MIC (A. baumannii CDC-0083) | MIC (P. aeruginosa ATCC 35151)
1 | O=C(NCCS(=O)(=O)N1CCN(C(=O)N[C@@H](C(=O)N[C@H]2Cc3ccc(F)c(C(=O)O)c3OB2O)c2cc(F)c(O)c(O)c2Cl)C1=O)Nc1cccnc1 [Example 267, (R)-3-((R)-2-(2-chloro-5-fluoro-3,4-dihydroxyphenyl)-2-(2-oxo-3-((2-(3-(pyridin-3-yl)ureido)ethyl)sulfonyl)imidazolidine-1-carboxamido)acetamido)-7-fluoro-2-hydroxy-3,4-dihydro-2H-benzo[e][1,2]oxaborinine-8-carboxylic acid] | 2 to 4 µg/mL (≈ 2.56 to 5.12 µM) | < 1 µg/mL | 16 to 32 µg/mL (≈ 20.5 to 40.9 µM) | < 10 µM | 16 to 32 µg/mL (≈ 20.5 to 40.9 µM) | > 64 µg/mL | < 1 µg/mL | 8 to 16 µg/mL (≈ 10.2 to 20.5 µM) | 16 to 32 µg/mL (≈ 20.5 to 40.9 µM) | 2 to 4 µg/mL (≈ 2.56 to 5.12 µM) | < 1 µg/mL | 4 to 8 µg/mL (≈ 5.12 to 10.2 µM) | 2 to 4 µg/mL (≈ 2.56 to 5.12 µM) | < 1 µg/mL | < 1 µg/mL
2 | O=C(NCCCS(=O)(=O)N1CCN(C(=O)NC(C(=O)N[C@H]2Cc3ccc(F)c(C(=O)O)c3OB2O)c2cc(F)c(O)c(O)c2Cl)C1=O)c1ccccc1 (stereo partly drawn) [Example 268, (3R)-3-(2-(3-((3-benzamidopropyl)sulfonyl)-2-oxoimidazolidine-1-carboxamido)-2-(2-chloro-5-fluoro-3,4-dihydroxyphenyl)acetamido)-7-fluoro-2-hydroxy-3,4-dihydro-2H-benzo[e][1,2]oxaborinine-8-carboxylic acid] | 8 to 16 µg/mL (≈ 10.3 to 20.5 µM) | < 1 µg/mL | 16 to 32 µg/mL (≈ 20.5 to 41 µM) | < 10 µM | 16 to 32 µg/mL (≈ 20.5 to 41 µM) | > 64 µg/mL | < 1 µg/mL | 8 to 16 µg/mL (≈ 10.3 to 20.5 µM) | 16 to 32 µg/mL (≈ 20.5 to 41 µM) | 2 to 4 µg/mL (≈ 2.56 to 5.13 µM) | < 1 µg/mL | 16 to 32 µg/mL (≈ 20.5 to 41 µM) | 32 to 64 µg/mL (≈ 41 to 82.1 µM) | 2 to 4 µg/mL (≈ 2.56 to 5.13 µM) | < 1 µg/mL
3 | O=C(NCCCS(=O)(=O)N1CCN(C(=O)NC(C(=O)N[C@H]2Cc3ccc(F)c(C(=O)O)c3OB2O)c2cc(F)c(O)c(O)c2Cl)C1=O)c1ccc(O)cc1 (stereo partly drawn) [Example 269, (3R)-3-(2-(2-chloro-5-fluoro-3,4-dihydroxyphenyl)-2-(3-((3-(4-hydroxybenzamido)propyl)sulfonyl)-2-oxoimidazolidine-1-carboxamido)acetamido)-7-fluoro-2-hydroxy-3,4-dihydro-2H-benzo[e][1,2]oxaborinine-8-carboxylic acid] | 8 to 16 µg/mL (≈ 10.1 to 20.1 µM) | 2 to 4 µg/mL (≈ 2.51 to 5.03 µM) | 16 to 32 µg/mL (≈ 20.1 to 40.2 µM) | < 10 µM | 16 to 32 µg/mL (≈ 20.1 to 40.2 µM) | > 64 µg/mL | < 1 µg/mL | 8 to 16 µg/mL (≈ 10.1 to 20.1 µM) | 16 to 32 µg/mL (≈ 20.1 to 40.2 µM) | 8 to 16 µg/mL (≈ 10.1 to 20.1 µM) | < 1 µg/mL | 4 to 8 µg/mL (≈ 5.03 to 10.1 µM) | 8 to 16 µg/mL (≈ 10.1 to 20.1 µM) | 32 to 64 µg/mL (≈ 40.2 to 80.4 µM) | < 1 µg/mL
4 | O=C(NCCCS(=O)(=O)N1CCN(C(=O)N[C@H](C(=O)N[C@H]2Cc3ccc(F)c(C(=O)O)c3OB2O)c2cc(F)c(O)c(O)c2Cl)C1=O)c1cccc(O)c1 [Example 270, (R)-3-((S)-2-(2-chloro-5-fluoro-3,4-dihydroxyphenyl)-2-(3-((3-(3-hydroxybenzamido)propyl)sulfonyl)-2-oxoimidazolidine-1-carboxamido)acetamido)-7-fluoro-2-hydroxy-3,4-dihydro-2H-benzo[e][1,2]oxaborinine-8-carboxylic acid] | > 128 µg/mL | 8 to 16 µg/mL (≈ 10.1 to 20.1 µM) | > 64 µg/mL | < 10 µM | > 64 µg/mL | > 64 µg/mL | < 1 µg/mL | 32 to 64 µg/mL (≈ 40.2 to 80.4 µM) | > 64 µg/mL | 32 to 64 µg/mL (≈ 40.2 to 80.4 µM) | 2 to 4 µg/mL (≈ 2.51 to 5.03 µM) | > 64 µg/mL | > 128 µg/mL | 2 to 4 µg/mL (≈ 2.51 to 5.03 µM) | < 1 µg/mL
